Laboratory results: article PMC6005845 (Frontiers in Cardiovascular Medicine, 2018)
Like-named read-outs stand apart in the source and are kept apart here. Blank lines part the entries; values can stand above or below the compound they belong to.

Legend:
[1] = test system: MCP-1; assay: Plasma MCP-1 ELISA; assay type: in vivo, APOE*3Leiden.CETP mice; conditions: for MCP-1: after 16 weeks of treatment; for change of MCP-1 relative to baseline (T = 0 weeks): p < 0.001
Source text: (§1) Pouwer et al Supplementary material […]
(§2) The inflammatory markers SAA, E-selectin and MCP-
(§3) according to the manufacturer’s instruction. […]

[2] = test system: APOE*3Leiden.CETP mice; assay: Hepatic lipid content by HPTLC; assay type: in vivo; conditions: 16 weeks
Protocol: (§4) Pouwer et al Supplementary material
(§5) HDL-C was measured after precipitation as described previously20. The distribution of […]
(§6) protein liquid chromatography (FPLC)9. The inflammatory markers SAA, E-selectin and MCP- […]
(§7) according to the manufacturer’s instruction. Plasma ALT and AST were determined using a […]
(§8) group at 2 and 15 weeks18.
(§9) Straubenhardt, Germany).21
(§10) BAL and urinary albumin:creatinin […]
(§11) catheter to collect broncho-alveolar lavage (BAL) fluid. Protein and albumin content in BAL […]
(§12) the mouse albumin ELISA kit (ALPCO, Salem, USA). Urinary albumin and creatinin levels […]
(§13) kit (Exocell, Philadelphia, USA) according to manufacturer’s instruction.

[3] = Pharmacokinetic analysis and plasma drug concentrations (LC-MS/MS); assay type: in vivo, APOE*3Leiden.CETP mice; conditions: APOE*3Leiden.CETP, mouse, plasma; for AUC(0-t): read-out: AUC0–24
Protocol: Animal experiments were approved by the Institutional Animal Care and Use Committee of The Netherlands Organization for Applied Research under registration number 3557.
PK analysis and plasma drug concentrations
EDTA plasma samples collected during the 24-hour PK study and at week 16 of the (cardio)vascular risk factor-atherosclerosis study were subsequently stored at -80°C until analysis. Thawed plasma samples (50μL) were de-proteinized with two volumes of acetonitrile containing an appropriate src-inhibitor chemotype as internal standard for each analyte.
Following deproteinization, a 5μL portion of clear supernatant was then subjected to solvent gradient separation in an Agilent 1100 series HPLC system interfaced to a Micromass triple-quadrupole mass spectrometer, which was operated in the positive ion electrospray MRM mode to obtain daughter ions for quantitation: Ion transitions used for quantitation were as follows: […]
curves ranging from 1 nM to 6 uM were fitted with a quadratic regression weighted by reciprocal concentration (1/x). LLOQ for the purposes of this assay was between 1 and 2 nM for all compounds analyzed. QC samples at three levels in the range of the standard curve were used to accept individual analytical sets, and all results were calculated as the mean of triplicate determinations ± standard error. Tmax, Cmax and AUCs were calculated using the software Berkeley Madonna (version 8.3.18). […]

[4] = test system: peripheral blood mononuclear cells; assay: Flow cytometric analysis (FACS) of PBMCs and monocyte subsets; conditions: for CD11b+Ly6Chigh / CD11b+Ly6Clow / Number of live/single PBMCs per mL blood: after 12 weeks; for change of number of circulating PBMCs vs control: at 12 weeks
[5] = test system: CML; conditions: cited from earlier work
[6] = test system: factor VIIa; assay: Factor VIIa activity in plasma; assay type: in vivo, APOE*3Leiden.CETP mice; conditions: 30 mg/kg QD, at 4 weeks, p < 0.001
Source text: as §4
(§14) Dickinson, Franklin Lakes, New Jersey, USA). After 12 weeks of treatment, peripheral blood
(§15) CD11b+/Ly6Chigh monocytes. The following conjugated monoclonal antibodies, all from
(§16) Coagulation factor VII and VIIa
(§17) (Diagnostica Stago Inc. Parsippany, N J). For the determination of total clotting FVII an one
(§18) Histological assessment of lung morphology and atherosclerosis
(§19) The caudal lung was cross
(§20) direction of the aortic arch.

[7] = test system: E-selectin; assay: Plasma E-selectin ELISA; assay type: in vivo, APOE*3Leiden.CETP mice; conditions: after 16 weeks of treatment
Source text: as §1, §2, §3

[8] = QD, cited from earlier work
[9] = test system: factor VII; assay: Total factor VII coagulant activity in plasma; assay type: in vivo, APOE*3Leiden.CETP mice
Source text: as §4, §14, §15, §16, §17, §18, §19, §20

[10] = test system: APOE*3Leiden.CETP mice; assay: Lung vascular integrity: histology, wet/dry weight ratio, protein in BAL fluid; assay type: in vivo
Protocol: as §4, §5, §6, §7, §8, §9, §10, §11, §12, §13
Dickinson, Franklin Lakes, New Jersey, USA). After 12 weeks of treatment, peripheral blood […]
CD11b+/Ly6Chigh monocytes. The following conjugated monoclonal antibodies, all from […]
as §16
(Diagnostica Stago Inc. Parsippany, N J). For the determination of total clotting FVII an one […]
Histological assessment of lung morphology and atherosclerosis […]
The caudal lung was cross […]
as §20

[11] = for Body weight / Food intake: after 16 weeks; for Food intake: per cage
Source text: Female APOE*3Leiden.CETP transgenic mice (9 to 14 weeks of age) from the SPF breeding stock at TNO-Metabolic Health Research (TNO-Leiden) were used in this study. Females were used because they are more responsive to dietary cholesterol and fat than males. APOE*3Leiden females have a higher VLDL production ([20]) than males resulting in higher plasma total cholesterol (TC) and triglyceride (TG) levels and more pronounced development of atherosclerosis ([21, 22]). […] Body weight, food intake and clinical signs of behavior were monitored regularly during the study. Animal experiments were approved by the Institutional Animal Care and Use Committee of The Netherlands Organization for Applied Research under registration number 3557.

[12] = po, repeated dose, BID, 150 mg/kg, after 16 weeks
[13] = po, repeated dose, QD, 10 mg/kg, after 16 weeks
[14] = po, repeated dose, QD, 30 mg/kg, after 16 weeks
[15] = po, repeated dose, QD, 3 mg/kg, after 16 weeks

MCP-1 ([1]; 150 mg/kg BID): 54 ± 44 pg/mL | Cmax [3, 12]: 11100 ng/mL | Tmax [3, 12]: 2.47 h | AUC(0-t) [3, 12]: 78100 ng·h/mL | Cmax ([3]; single oral gavage, 100 mg/kg): 5290 ng/mL | Tmax ([3]; single oral gavage, 100 mg/kg): 2.28 h | AUC(0-t) ([3]; single oral gavage, 100 mg/kg): 32800 ng·h/mL | CD11b+Ly6Chigh ([4]; 150 mg/kg BID): 11.0 ± 3.6 % of monocyte population | CD11b+Ly6Clow ([4]; 150 mg/kg BID): 69.1 ± 5.9 % of monocyte population | Number of live/single PBMCs per mL blood ([4]; 150 mg/kg BID): 3.9 ± 1.3 *106 /mL | change of number of circulating PBMCs vs control ([4]; 150 mg/kg BID, p = 0.006): −42%
SMILES: Cc1ccc(NC(=O)c2ccc(CN3CCN(C)CC3)cc2)cc1Nc1nccc(-c2cccnc2)n1 [Imatinib, imatinib]
effect on plasma MCP-1 ([1]; 150 mg/kg BID, 16 weeks): None of the inflammatory markers were significantly altered | change of hepatic cholesterol ester content vs control ([2]; 150 mg/kg BID, p = 0.001): −30% | relapses in treated patients [5]: up to 17%

increase of the activity of FVIIa in plasma vs control [6]: 82% | change of MCP-1 relative to baseline (T = 0 weeks) ([1]; 10 mg/kg QD, 16 weeks): +220% | MCP-1 ([1]; 10 mg/kg QD): 144 ± 82 pg/mL | change of MCP-1 relative to baseline (T = 0 weeks) ([1]; 30 mg/kg QD, 16 weeks): +160% | MCP-1 ([1]; 30 mg/kg QD): 117 ± 60 pg/mL | E-selectin ([7]; 10 mg/kg QD): 79 ± 23 ng/mL | E-selectin ([7]; 30 mg/kg QD): 99 ± 17 ng/mL | Cmax [3, 13]: 2300 ng/mL | Tmax [3, 13]: 3.17 h | AUC(0-t) [3, 13]: 24600 ng·h/mL | Cmax [3, 14]: 6890 ng/mL | Tmax [3, 14]: 3.17 h | AUC(0-t) [3, 14]: 73800 ng·h/mL | Cmax ([3]; single oral gavage, 50 mg/kg): 11000 ng/mL | Tmax ([3]; single oral gavage, 50 mg/kg): 3.26 h | AUC(0-t) ([3]; single oral gavage, 50 mg/kg): 117000 ng·h/mL | CD11b+Ly6Chigh ([4]; 10 mg/kg): 27.5 ± 4.3 % of monocyte population | CD11b+Ly6Clow ([4]; 10 mg/kg): 61.4 ± 4.8 % of monocyte population | Number of live/single PBMCs per mL blood ([4]; 10 mg/kg): 6.5 ± 2.4 *106 /mL | CD11b+Ly6Chigh ([4]; 30 mg/kg): 11.4 ± 3.8 % of monocyte population | CD11b+Ly6Clow ([4]; 30 mg/kg): 73.2 ± 4.9 % of monocyte population | Number of live/single PBMCs per mL blood ([4]; 30 mg/kg): 6.4 ± 1.4 *106 /mL
SMILES: Cc1cn(-c2cc(NC(=O)c3ccc(C)c(Nc4nccc(-c5cccnc5)n4)c3)cc(C(F)(F)F)c2)cn1 [Nilotinib, nilotinib]
AUC0–24 ([8]; CML-patients, repeated dose, dose 400–1,200 (mg)): 36000 ± 11800 ng·h/mL | AUC0–24 ([8]; healthy subjects, single, dose 400 (mg)): 14700 ± 5000 ng·h/mL

SMILES: Cc1ccc(C(=O)Nc2ccc(CN3CCN(C)CC3)c(C(F)(F)F)c2)cc1C#Cc1cnc2cccnn12 [Ponatinib, ponatinib]
MCP-1 ([1]; 3 mg/kg QD): 78 ± 29 pg/mL | MCP-1 ([1]; 10 mg/kg QD): 92 ± 68 pg/mL | change of total factor VII coagulant activity (FVII) in plasma vs control ([9]; 3 mg/kg QD, after 12 weeks, p = 0.07): +28% | change of total factor VII coagulant activity (FVII) in plasma vs control ([9]; 10 mg/kg QD, after 4 weeks, p < 0.001): +265% | change of hepatic cholesterol ester content vs control ([2]; 3 mg/kg QD (low dose), p < 0.001): −49% | change of hepatic triglyceride content vs control ([2]; 3 mg/kg QD (low dose), p = 0.048): −32% | change of hepatic cholesterol ester content vs control ([2]; 10 mg/kg QD (high dose), p < 0.001): −61% | change of hepatic triglyceride content vs control ([2]; 10 mg/kg QD (high dose), p = 0.005): −43% | change of hepatic free cholesterol content vs control ([2]; 10 mg/kg QD, p = 0.007): −21% | decrease of the amount of protein in BAL fluid ([10]; 3 mg/kg QD, week 16, p = 0.029): 51% | decrease of the amount of protein in BAL fluid ([10]; 10 mg/kg QD, week 16, p = 0.041): 47% | Cmax [3, 15]: 140 ng/mL | Tmax [3, 15]: 6.72 h | AUC(0-t) [3, 15]: 2430 ng·h/mL | Cmax [3, 13]: 460 ng/mL | Tmax [3, 13]: 6.73 h | AUC(0-t) [3, 13]: 8110 ng·h/mL | Cmax ([3]; single oral gavage, 5 mg/kg): 190 ng/mL | Tmax ([3]; single oral gavage, 5 mg/kg): 8 h | AUC(0-t) ([3]; single oral gavage, 5 mg/kg): 3240 ng·h/mL | CD11b+Ly6Clow ([4]; 3 mg/kg): 58.4 ± 2.5 % of monocyte population | Number of live/single PBMCs per mL blood ([4]; 3 mg/kg): 7.1 ± 1.7 *106 /mL | change of number of circulating PBMCs vs control ([4]; 10 mg/kg QD (high-dose), p = 0.003): −44% | CD11b+Ly6Clow ([4]; 10 mg/kg): 69.1 ± 6.4 % of monocyte population | Number of live/single PBMCs per mL blood ([4]; 10 mg/kg): 3.8 ± 0.8 *106 /mL | mice that died during blood pressure measurements ([11]; 3 mg/kg QD, t = 15 weeks): Two | Body weight ([11]; 3 mg/kg): 22.5 ± 2.3 gram | Food intake ([11]; 3 mg/kg): 2.4 gram/mouse/day | Body weight ([11]; 10 mg/kg): 22.3 ± 2.8 gram | Food intake ([11]; 10 mg/kg): 2.3 gram/mouse/day | AUC0–24 ([8]; CML-patients, repeated dose, dose 15–60 (mg)): 1300 ng·h/mL | AUC0–24 ([8]; CML-patients, single, dose 60 (mg)): 700 ± 400 ng·h/mL
